Measured values: patent US20040202638A1, “Substance capable of potentiating laminin 5 productivity in epidermal cells and utilization thereof” (priority 2001, published 2004)

Test system: laminin 5
Assay: Laminin 5 productivity evaluation test (keratinocyte culture, sandwich ELISA)
Assay type: cell-based, human
Details: for laminin 5 productivity potentiating action: result in words
Experimental: (1) Culture of Keratinocytes
Keratinocytes were isolated from the human preputium and cultured in an epidermal cell growth medium (KGM) having a low calcium concentration. To this culture medium were added bovine pituitary extract and EGF. After cultivation in KGM up to the fourth generation, the cells were treated with trypsin and EDTA to suspend adherent cells. Then, the culture was filtered to remove cell aggregates and thereby to obtain a homogeneous cell suspension. The cells were collected by centrifugation and resuspended in DMEM-F12 (2:I)-0.1% BSA so as to give a cell density of8×10^4 per ml. Each 0.5 ml of this cell suspension was added to 0.5 ml of the same medium containing a twofold concentration of each test sample. Using a 24-well plate, incubation was carried out at 37° C. for 24 hours. After completion of the incubation, the culture supernatant was transferred to an Eppendorf tube and centrifuged at 10,000 rpm for 5 minutes. The supernatant was transferred to a new tube and stored at −20° C. till the day for the determination of laminin 5. In order to solubilize laminin 5 in the cells and that bound to the culture plastics, a tris-HCl buffer (pH 7.4) containing various surfactants was added to each well and allowed to stand at −20° C. overnight. On the following day, the mixture was ultrasonicated and frozen again. On the following day, the mixture was thawed again and centrifuged at 10,000 rpm for 5 minutes. The supernatant was transferred to a tube and stored at −20° C. till the day for the determination of laminin 5.
(2) Determination of Laminin 5 by the Sandwich ELISA Method
Laminin 5 present in the culture supernatant and the cell layer was determined by the sandwich ELISA method. A monoclonal antibody (BM165) to the laminin α3 chain of laminin 5 was attached to a solid layer of a 96-well ELISA plate. In order to determine laminin 5 in sandwiched manner, a monoclonal antibody (6F12) to the laminin β3 chain was previously biotinized (b-6F12) and used as the other antibody. […] A sample was added to each of the wells in which a 3% gelatin-phosphate buffer solution containing b-6F12 had previously been placed. The final dilution ratio of the sample in the wells was ¼ for the culture medium and 1/10 for the cell layer. After the antigen-antibody reaction was carried out at 37° C. for 2 hours, the plate was washed, and an avidin HRP (horseradish peroxidase) solution was added thereto and reacted for a period of 30 minutes to 1 hour. After washing, a solution of ABTS serving as a substrate for HRP was added thereto and the absorbance at 405 nm was measured with an ELISA plate reader. A calibration curve was constructed over a range of 0 to 40 ng/ml.
The sum of the laminin 5 liberated into the culture medium and that remaining in the cell layer was calculated. The yield of laminin 5 was expressed by the relative value to that of the sample to which none of the plant extracts was added (control).

[1] = Table 3 (comparative example), concentration 1 μM
[2] = Table 3 (comparative example), concentration 10 μM
[3] = Table 3 (comparative example), concentration 100 μM

| SMILES | laminin 5 productivity potentiating action | Laminin 5 yield (%) Relative to the Control [1] | Laminin 5 yield (%) Relative to the Control [2] | Laminin 5 yield (%) Relative to the Control [3] | Laminin 5 yield (%) Relative to the Control (Table 2, concentration 1 μM) | Laminin 5 yield (%) Relative to the Control (Table 2, concentration 10 μM) | Laminin 5 yield (%) Relative to the Control (Table 2, concentration 0.1 μM) |
| --- | --- | --- | --- | --- | --- | --- | --- |
| O=c1c(-c2ccc(O)cc2)coc2cc(O[C@@H]3O[C@H](CO)[C@@H](O)[C@H](O)[C@H]3O)ccc12 [daidzin, daidzein-7-glucoside] | little or no laminin 5 productivity potentiating action |  |  |  |  |  |  |
| O=c1c(-c2ccc(O)cc2)coc2c([C@@H]3O[C@H](CO)[C@@H](O)[C@H](O)[C@H]3O)c(O)ccc12 [Puerarin, daidzein-8-glucoside] | little or no laminin 5 productivity potentiating action |  |  |  |  |  |  |
| O=c1c(-c2ccc(O)c(O)c2)coc2c([C@@H]3O[C@H](CO)[C@@H](O)[C@H](O)[C@H]3O)c(O)ccc12 [Glucoside, 8-β-D-glucopyranosyl-7-hydroxy-3-(3′,4′-dihydroxyphenyl)-4H-1-benzopyran-4-one] |  | 93% | 95% | 99% |  |  |  |
| C[C@H]1[C@H](C)CC[C@]2(C)CC[C@]3(C)C4=C(CC[C@@]3(C)[C@H]12)[C@@]1(C)CC[C@H](O)C(C)(C)C1CC4 (stereo partly drawn) [Isobauerenol, isobauerenol] | exhibiting laminin 5 productivity potentiating action |  |  |  | 132% | 137% |  |
| O=c1c(-c2ccc(O)cc2)coc2cc(O)ccc12 [Daidzein, 4′,7-dihydroxyisoflavone] | little or no laminin 5 productivity potentiating action | 93% | 99% | 74% |  |  |  |
| C=C(C)[C@@H]1CC[C@]2(C)CC[C@]3(C)[C@H](CC[C@@H]4[C@@]5(C)CC[C@H](O)C(C)(C)[C@@H]5CC[C@]43C)[C@@H]12 [Lupeol, lupeol] | exhibiting laminin 5 productivity potentiating action |  |  |  | 154% |  | 122% |
